Reference: US10959998B2, “Pharmaceutical use and pharmaceutical composition of pyrroloquinoline quinine, its derivatives and/or its salts” (priority 2015, dated 2021)

Tests used:
[1] = system: ectopic endometrial stromal cells; assay: MTT cell proliferation of ectopic endometrial stromal cells; format: cell-based, human
Method: Endometrial tissues were surgically isolated from patients with chocolate cyst of ovary, washed 2 to 3 times with PBS supplemented with antibiotics in ultra-clean cabinet, and cut into tiny pieces (about 1 mm^3 in size) with aseptic scissors. The tissues were digested with 1 mg/ml collagenase type I for 30 to 90 min at 37° C., and continually digested with Dnase I (final concentration of 15 U/ml, 2% Dnase I) for another 30 min. The digested tissues were filtered thorough 60-mesh stainless steel filter cell strainer to remove the undigested cell tissues, and were further filtered with 200- or 400-mesh strainer. The filtered solution was centrifuged at 1000 rpm for 5 min. After removing the supernatants, the cells were washed once with culture medium compounded by DMEM/F12 (1:1 v/v) and 10% fetal bovine serum, re-suspended in the culture medium, and seeded in 6-well tissue culture plate or T25 tissue culture flasks with an appropriate density. After 24 hours incubation, the culture medium was changed to remove the non-adherent blood cells, endothelial cells, macrophages and other miscellaneous cells. After primary human endometrial stromal cells were grown to reach 90% confluence, the cells were digested with 0.25% trypsin for 4 to 6 min, and then subcultured with a split ratio of 1:2 to 1:3. Vimentin which expresses specifically in stromal cells was detected by immuno-fluorescence to measure the cell purity. The cells of purity >95% were used in the following experiments. Primary ectopic endometrial stromal cells of human were subcultured and the subcultured cells of the 3th to 6th passages were chosen as experimental subjects. The cells in logarithmic growth phase were […] and incubated in the cell culture plate at a density of 50%˜60% (i.e. 2×10^4 cells/well). After growing adherent on the wall for 24 hours, the cultured cells were divided into groups and each group was given different doses of PQQ. 20 μL MTT (5 mg/ml in PBS, pH=7.4) was added to each well at indicated time points. The cells were incubated in an incubator at 37° C. in a 5% CO2 atmosphere for 4 h. At the end of incubation, the culture supernatant in each cell was carefully aspirated away. 150 μL DMSO was added to each well. Then the wells were shaken with Orbital shaker for 10 min. The absorbance of each cell was detected at wavelength 490 nm. Finally, the cell proliferation curve was drawn. Primary ectopic endometrial stromal cells were cultured and the subcultured cells of the 3th to 6th passage were chosen as experimental subjects. The cells in logarithmic growth phase were […] and incubated in the cell culture plate at a of 50%˜60% (e.g. 2×10^4 cells/well). The cells grew adhering to the wall for 24 hours before being treated with drugs. The cells were divided into groups and each group was given different dose of PQQ. At indicated time point, 20 μL […] (5 mg/ml in PBS, pH=7.4) was added to every well. The cells were then incubated in an incubator at 37° C. in a 5% CO2 atmosphere for 4 h. After terminating incubation, the culture supernatant in each cell was carefully aspirated away, but formazan crystals should not be aspirated away in any case. 150 μL DMSO was added to each well respectively. All the wells were shaken with Orbital shaker for 10 min to make the crystals adequately solubilized. The absorbance of each cell was detected at wavelength 490 nm. Finally, the cell proliferation curve was drawn.

[2] = system: infiltration of endometrial stroma and glands into myometrium; assay: Adenomyosis mouse model created with tamoxifen, pathological section; format: in vivo, mice
Method: Disodium salt of PQQ was used in the present experiment (PQQ-Na2, donated by MITSUBISHI gas chemical (MGC), Japan). The salt was dissolved with water and the concentration of its mother liquid is 1 mg/mL.
In the present Example, the mouse model of adenomyosis was created with tamoxifen. This method is easy to operate, the rate of molding can reach 100%, and the difference between the model mouses caused by the operation is small. At 2˜5 days after birth (the birth day was the first day), the mice were fed with 5 ul/(g·BW) peanut oil/lecithin/condensed milk mixture (volume ratio 2:0.2:3) supplemented with 0.2 mg/ml tamoxifen (produced by shanghai Fudan Fuhua Pharmaceutical Co, Ltd.) by drip feeding. In the negative control group, the mice were fed with peanut oil/lecithin/condensed milk mixture (volume ratio 2:0.2:3), with no tamoxifen added. All the mice were exposed to light for 12 h/day, and were reared by maternal lactation during 1-21 days of age. After 22 days of birth, the mice were separated with mother mice, and the female mice were reserved for the next experiment.
After 3 months, 7 model mice were killed after anesthesia. […] The remaining model mice were divided into 5 groups with 20 mice in each group. One of the groups was chosen as model control group (fed with normal water). The drinking water for other group were supplemented with PQQ (1 mg/kg/day), NAC (10 mg/kg/day), PQQ (1 mg/kg/day) +NAC (10 mg/kg/day) (denoted by P+N (H)); PQQ (0.2 mg/kg/day) +NAC (5 mg/kg/day) (denoted by P+N (L)).
After treatment with drugs for 4 weeks, the mice were killed by anesthesia. The uterus was surgically removed and the invasion of endometria into myometrium was analyzed by the pathological section.

[3] = system: cysts of EM patients; settings: after three months of treatment with NAC; cited from earlier work
[4] = system: ectopic endometrial foci; assay: Endometriosis rat model, weight of transplanted foci; format: in vivo, SD rats; settings: for weight of ectopic endometrial foci compared with the control group / weight of cysts after treatment (mg) Mean ± SD: Example 5, rats; for weight of cysts after treatment (mg) Mean ± SD: water feeding 4 week, PQQ 1 mg/kg, NAC 10 mg/kg, Resveratro 10 mg/kg, n=9
[5] = system: ectopic endometrial stromal cells; settings: NAC 10 mM, report of Ngo et al. 2009; cited from earlier work
[6] = system: EM lesions; settings: cited from earlier work; for lesion of EM model mice: Ricci et al. 2013, by antioxidation effect
[7] = 4 weeks in drinking water, PQQ (disodium salt) 1 mg/kg/day, NAC 10 mg/kg/day, P+N (H) 1+10, P+N (L) 0.2+5 mg/kg/day

Row | Molecule | cell proliferation ([1]; NAC 10 um alone) | cell proliferation ([1]; NAC 100 um alone) | infiltration of endometrial glands, positive animals/total animals [2, 7] | infiltration of endometrial stroma, positive animals/total animals [2, 7] | number of animals with infiltration of endometrial stroma and glands compared with model control group ([2]; after 4 weeks treatment, PQQ as disodium salt) | cysts sizes within EM patients [3] | weight of ectopic endometrial foci compared with the control group ([4]; after 4 weeks treatment) | weight of cysts after treatment (mg) Mean ± SD [4] | weight of ectopic cys after treatment (mg) Mean ± SD ([4]; Example 7, rats, 4 weeks in drinking water, PQQ (disodium salt) 1 mg/kg/day, NAC 10 mg/kg/day, P+N (H) 1+10, P+N (L) 0.2+5 mg/kg/day, n=12) | weight of ectopic cyst compared with model control group ([4]; Example 7, rats, after 4 weeks treatment, PQQ as disodium salt) | proliferation of ectopic endometrial stromal cells [5] | growth of EM lesions ([6]; mouse models of endometriosis, NAC daily dose 1.3 g/kg/day) | lesion of EM model mice [6]
1 | CC(=O)N[C@@H](CS)C(=O)O [NAC, N-acetyl-L-cysteine] | no evident effect | effectively inhibit the cell proliferation | 18/20 | 19/20 | no obvious difference with the control group | cysts sizes within EM patients were reduced significantly | no evident difference from that of the control group | 138.1 ± 33.1 mg | 142.1 ± 13.4 mg | no obvious difference with the control group | inhibit the proliferation of ectopic endometrial stromal cells | significantly inhibit the growth of EM lesions | –
2 | Epigallocatechin-3-gallate [EGCG] | – | – | – | – | – | – | – | – | – | – | – | – | effectively inhibit the lesion of EM model mice
3 | Oc1ccc(C=Cc2cc(O)cc(O)c2)cc1 [Res, Resveratrol] | – | – | – | – | – | – | no evident difference from that of the control group | 122.1 ± 30.7 mg | – | – | – | – | effectively inhibit the lesion of EM model mice
